The term IC50 denotes the point on the concentration scale where inhibition reaches its midpoint.

SMILES strings stand for the structures.

The target in the first assay is His-tagged recombinant human Gal-3 (hGal-3) (Homo sapiens (Human), UniProt P17931). Kind of assay: Gal-3 HTRF assay (His-tagged hGal-3 binding to B-ASF).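 Further: compounds preincubated 30 min with hGal-3, then 1 h with B-ASF, detection via terbium anti-His antibody and streptavidin d2. Control with B-ASF counts as full signal, omitting B-ASF as background.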 The settings on record: HTRF, hGal-3 15 nM, B-ASF 15 nM; read-out: hGal-3 IC50. A general note: Time-resolved FRET reads energy transfer from a long-lived donor to a nearby acceptor.
Sequence of His-tagged recombinant human Gal-3 (hGal-3) (P17931 whole entry): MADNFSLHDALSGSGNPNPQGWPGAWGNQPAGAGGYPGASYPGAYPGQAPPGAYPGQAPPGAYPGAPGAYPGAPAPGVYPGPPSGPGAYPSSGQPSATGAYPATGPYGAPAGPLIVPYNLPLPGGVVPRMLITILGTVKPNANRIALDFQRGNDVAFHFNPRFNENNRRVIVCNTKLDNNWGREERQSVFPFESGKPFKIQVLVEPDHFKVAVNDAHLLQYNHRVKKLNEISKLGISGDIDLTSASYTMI
On to `Cc1nc([C@@H]2O[C@H](CO)[C@H](O)[C@H](n3cc(-c4cc(F)c(F)c(F)c4)nn3)[C@H]2O)n(-c2cc(Cl)cc(C(F)(F)F)c2)n1` [Example 67], for which the IC50 came out at 130 nM.

For the compound `OC[C@H]1O[C@@H](c2nncn2-c2ccc(-n3ccnc3)cc2)[C@H](O)[C@@H](n2cc(-c3cc(F)c(F)c(F)c3)nn2)[C@H]1O` [Example 117], the IC50 amounted to 1460 nM.

Turning to `COc1ccc(Cl)cc1-n1ncnc1[C@H]1C[C@@H](n2cc(-c3cc(F)c(F)c(F)c3)nn2)[C@@H](O)[C@@H](CO)O1` [Example 180], the IC50 was found to be 210 nM.

On to `Cc1ccc(Cl)cc1-n1ncnc1[C@H]1C[C@@H](n2cc(-c3cc(F)c(F)c(F)c3)nn2)[C@@H](O)[C@@H](CO)O1` [Example 178], for which the IC50 was found to be 250 nM.

Regarding `OC[C@H]1O[C@@H](n2nncc2-c2ccc3cn[nH]c3c2)[C@H](O)[C@@H](n2cc(-c3cc(F)c(F)c(F)c3)nn2)[C@H]1O` [Example 6], the IC50 turned out to be 494 nM.

In the case of `OC[C@H]1O[C@@H](c2nncn2-c2ccc(Oc3ccccc3)cc2)[C@H](O)[C@@H](n2cc(-c3cc(F)c(F)c(F)c3)nn2)[C@H]1O` [Example 104], the IC50 was 820 nM.

In the case of `OC[C@H]1O[C@@H](c2nncn2-c2ccc(-c3nnn[nH]3)cc2)[C@H](O)[C@@H](n2cc(-c3cc(F)c(F)c(F)c3)nn2)[C@H]1O` [Example 111], the IC50 was determined as 820 nM.

With `CNS(=O)(=O)Cc1ccc(-n2cnnc2[C@@H]2O[C@H](CO)[C@H](O)[C@H](n3cc(-c4cc(F)c(F)c(F)c4)nn3)[C@H]2O)cc1` [Example 114], the IC50 was found to be 260 nM.

With `OC[C@H]1O[C@@H](n2nncc2-c2ccc(Cl)cc2)[C@H](O)[C@@H](n2cc(-c3cc(F)c(F)c(F)c3)nn2)[C@H]1O` [Example 7], the IC50 came out at 329 nM.

Consider `OC[C@H]1O[C@@H](c2ncnn2Cc2cccc(Cl)c2)[C@H](O)[C@@H](n2cc(-c3cc(F)c(F)c(F)c3)nn2)[C@H]1O` [Example 22], for which the IC50 is 1110 nM.

Take `Cc1nc2ccc(-n3ncnc3[C@@H]3O[C@H](CO)[C@H](O)[C@H](n4cc(-c5ccc(C6CC6)c(F)c5)nn4)[C@H]3O)cc2s1` [Example 201, (2R,3R,4R,5R,6S)-4-(4-(4-cyclopropyl-3-fluorophenyl)-1H-1,2,3-triazol-1-yl)-2-(hydroxymethyl)-6-(1-(2-methylbenzo[d]thiazol-6-yl)-1H-1,2,4-triazol-5-yl)tetrahydro-2H-pyran-3,5-diol]: the IC50 was 350 nM.

With `OC[C@H]1O[C@@H](c2nn[nH]c2-c2cccc(Cl)c2)[C@H](O)[C@@H](n2cc(-c3cc(F)c(F)c(F)c3)nn2)[C@H]1O` [Example 290, (2S,3R,4R,5R,6R)-2-(5-(3-chlorophenyl)-1H-1,2,3-triazol-4-yl)-6-(hydroxymethyl)-4-(4-(3,4,5-trifluorophenyl)-1H-1,2,3-triazol-1-yl)tetrahydro-2H-pyran-3,5-diol], the IC50 came out at 3000 nM.

As to `Cc1nc([C@@H]2O[C@H](CO)[C@H](O)[C@H](n3cc(-c4cc(F)c(F)c(F)c4)nn3)[C@H]2O)n(-c2cc(Cl)ccc2C#N)n1` [Example 64], the IC50 was found to be 90 nM.

With `Cc1nc2ccc(-n3ncnc3[C@H]3C[C@@H](n4cc(-c5cc(F)c(F)c(F)c5)nn4)[C@@H](O)[C@@H](CO)O3)cc2s1` [Example 176], the IC50 worked out at 40 nM.

For `OC[C@H]1O[C@@H](c2nncn2-c2cc(Cl)ccc2Cl)[C@H](O)[C@@H](n2cc(-c3cc(F)c(F)c(F)c3)nn2)[C@H]1O` [Example 135], the IC50 was determined as 30 nM.

As for `Cc1nc2ccc(-n3ncnc3[C@@H]3O[C@H](CO)[C@H](O)[C@H](n4cc(C(=O)NC5CCCCC5)nn4)[C@H]3O)cc2s1` [Example 198], the IC50 was determined as 1020 nM.

For `Cc1nnc([C@@H]2O[C@H](CO)[C@H](O)[C@H](n3cc(-c4cc(F)c(F)c(F)c4)nn3)[C@H]2O)n1-c1cccc(Cl)c1` [Example 272, (2S,3R,4R,5R,6R)-2-(4-(3-chlorophenyl)-5-methyl-4H-1,2,4-triazol-3-yl)-6-(hydroxymethyl)-4-(4-(3,4,5-trifluorophenyl)-1H-1,2,3-triazol-1-yl)tetrahydro-2H-pyran-3,5-diol], the IC50 came out at 70 nM.

Regarding `Cc1nc2ccc(-n3nc(CC(N)=O)nc3[C@@H]3O[C@H](CO)[C@H](O)[C@H](n4cc(-c5cc(F)c(F)c(F)c5)nn4)[C@H]3O)cc2s1` [Example 268], the IC50 turned out to be 120 nM.

On to `OC[C@H]1O[C@@H](c2nncn2-c2ccc3ccncc3c2)[C@H](O)[C@@H](n2cc(-c3cc(F)c(F)c(F)c3)nn2)[C@H]1O` [Example 126], for which the IC50 was 270 nM.

Turning to `OC[C@H]1O[C@@H](c2nncn2-c2ccc(-c3cnco3)cc2)[C@H](O)[C@@H](n2cc(-c3cc(F)c(F)c(F)c3)nn2)[C@H]1O` [Example 82], the IC50 worked out at 580 nM.

Take `CO[C@@H]1[C@@H](n2cc(-c3cc(F)c(F)c(F)c3)nn2)[C@@H](O)[C@@H](CO)O[C@H]1c1ncnn1-c1ccc2nc(C)sc2c1` [Example 191]: the IC50 is 60 nM.

As to `Cc1nc2cccc(-n3cnnc3[C@@H]3O[C@H](CO)[C@H](O)[C@H](n4cc(-c5cc(F)c(F)c(F)c5)nn4)[C@H]3O)c2s1` [Example 139], the IC50 was 260 nM.

Consider `Cc1nc([C@@H]2O[C@H](CO)[C@H](O)[C@H](n3cc(-c4cc(F)c(F)c(F)c4)nn3)[C@H]2O)n(-c2nc3ccnn3cc2F)n1` [Example 66], for which the half-maximal inhibitory concentration (IC50) came out at 3840 nM.

Take `NS(=O)(=O)c1ccc(-n2cnnc2[C@@H]2O[C@H](CO)[C@H](O)[C@H](n3cc(-c4cc(F)c(F)c(F)c4)nn3)[C@H]2O)cc1` [Example 116]: the IC50 was determined as 670 nM.

For `OC[C@H]1O[C@@H](n2nncc2-c2ccc3c(c2)OCO3)[C@H](O)[C@@H](n2cc(-c3cc(F)c(F)c(F)c3)nn2)[C@H]1O` [Example 4], the IC50 is 386 nM.

With `CS(=O)(=O)c1cc(-n2cnnc2[C@@H]2O[C@H](CO)[C@H](O)[C@H](n3cc(-c4cc(F)c(F)c(F)c4)nn3)[C@H]2O)ccc1F` [Example 129], the IC50 came to 600 nM.

With `OC[C@H]1O[C@@H](c2nncn2-c2cccc(OC(F)(F)F)c2)[C@H](O)[C@@H](n2cc(-c3cc(F)c(F)c(F)c3)nn2)[C@H]1O` [Example 93], the IC50 worked out at 190 nM.

In the case of `Cc1nc([C@@H]2O[C@H](CO)[C@H](O)[C@H](n3cc(-c4cc(F)c(F)c(F)c4)nn3)[C@H]2O)n(-c2ccc3nc(C)sc3c2)n1` [Example 57, (2R,3R,4R,5R,6S)-2-(hydroxymethyl)-6-(3-methyl-1-(2-methylbenzo[d]thiazol-6-yl)-1H-1,2,4-triazol-5-yl)-4-(4-(3,4,5-trifluorophenyl)-1H-1,2,3-triazol-1-yl)tetrahydro-2H-pyran-3,5-diol], the IC50 stood at 50 nM.

In the case of `CO[C@@H]1[C@@H](n2cc(-c3ccc(Cl)c(F)c3)nn2)[C@@H](O)[C@@H](CO)O[C@H]1c1nc(C)nn1-c1cc(Cl)ccc1C` [Example 258], the IC50 is 60 nM.

As to `Cc1nc2ccc(-n3ncnc3[C@@H]3O[C@H](CO)[C@H](O)[C@H](n4cc(-c5cc(F)c(F)c(F)c5)nn4)[C@H]3O)cc2s1` [Example 45], the IC50 came to 60 nM.

With `COc1cc(-n2cnnc2[C@@H]2O[C@H](CO)[C@H](O)[C@H](n3cc(-c4cc(F)c(F)c(F)c4)nn3)[C@H]2O)ccn1` [Example 133], the IC50 amounted to 200 nM.

The same assay, now with this note: read-out: hGal3 IC50.
For `Cc1nc2ccc(-n3ncnc3[C@@H]3O[C@H](CO)[C@H](O)[C@H](n4cc(-c5ccccc5)nn4)[C@H]3O)cc2s1` [Example 214], the IC50 was found to be 600 nM.

For `COC(=O)Nc1ccc(-c2cn([C@H]3[C@@H](O)[C@@H](CO)O[C@@H](c4ncnn4-c4ccc5nc(C)sc5c4)[C@@H]3O)nn2)cc1F` [Example 205], the IC50 is 1110 nM.

For `Cc1nc2ccc(-n3ncnc3[C@@H]3O[C@H](CO)[C@H](O)[C@H](n4cc(-c5ccc(OC(F)(F)F)c(F)c5)nn4)[C@H]3O)cc2s1` [Example 229], the IC50 stood at 980 nM.

As to `CO[C@@H]1[C@@H](n2cc(-c3cc(F)c(Cl)c(F)c3)nn2)[C@@H](O)[C@@H](CO)O[C@H]1c1nncn1-c1cc(Cl)ccc1C(F)(F)F` [Example 308], the IC50 came to 22 nM.

As to `Cc1nc2ccc(-n3ncnc3[C@@H]3O[C@H](CO)[C@H](O)[C@H](n4cc(-c5cc(F)cc(Cl)c5)nn4)[C@H]3O)cc2s1` [Example 240], the IC50 was determined as 160 nM.

As for `COc1cc(F)c(F)cc1-c1cn([C@H]2[C@@H](O)[C@@H](CO)O[C@@H](c3ncnn3-c3ccc4nc(C)sc4c3)[C@@H]2O)nn1` [Example 233], the IC50 turned out to be 240 nM.

As for `CNc1ccc(-c2cn([C@H]3[C@@H](O)[C@@H](CO)O[C@@H](c4ncnn4-c4ccc5nc(C)sc5c4)[C@@H]3O)nn2)cc1F` [Example 207], the IC50 came out at 740 nM.

On to `CC(=O)Nc1ccc(-c2cn([C@H]3[C@@H](O)[C@@H](CO)O[C@@H](c4ncnn4-c4ccc5nc(C)sc5c4)[C@@H]3O)nn2)cc1F` [Example 204], for which the half-inhibitory concentration (IC50) worked out at 5000 nM.

As for `CCOC(=O)Nc1cc(-c2cn([C@H]3[C@@H](O)[C@@H](CO)O[C@@H](c4ncnn4-c4ccc5nc(C)sc5c4)[C@@H]3O)nn2)cc(F)c1F` [Example 220], the IC50 was found to be 70 nM.

Still in this assay, the particulars now being: read-out: hGal IC50.
For the compound `Cc1nc([C@@H]2O[C@H](CO)[C@H](O)[C@H](n3cc(-c4cc(F)c(Cl)c(F)c4)nn3)[C@H]2O)n(-c2cc(CC(F)(F)F)ccc2Cl)n1` [Example A40], the half-inhibitory concentration (IC50) stood at 126 nM.

With `Cc1nc([C@@H]2O[C@H](CO)[C@H](O)[C@H](n3cc(-c4cc(F)c(Cl)c(F)c4)nn3)[C@H]2O)n(-c2cc3sc(C)nc3cc2C(F)(F)F)n1` [Example A30], the IC50 turned out to be 17 nM.

Regarding `Cc1nc([C@@H]2O[C@H](CO)[C@H](O)[C@H](n3cc(-c4cc(F)c(Cl)c(F)c4)nn3)[C@H]2O)n(-c2cc(Cl)ccc2C2CC2)n1` [Example A34], the IC50 is 46 nM.

Take `Cc1nc([C@@H]2O[C@H](CO)[C@H](O)[C@H](n3cc(-c4ccc(Cl)c(F)c4)nn3)[C@H]2O)n(-c2cc(Cl)ccc2Br)n1` [Example A15]: the IC50 turned out to be 40 nM.

As to `Cc1nc([C@@H]2O[C@H](CO)[C@H](O)[C@H](n3cc(-c4cc(F)c(Cl)c(F)c4)nn3)[C@H]2O)n(-c2cc(Cl)cc(F)c2Cl)n1` [Example A49], the IC50 stood at 46 nM.

As to `Cc1nc([C@@H]2O[C@H](CO)[C@H](O)[C@H](n3cc(-c4ccc(Br)c(F)c4)nn3)[C@H]2O)n(-c2cc(Cl)ccc2C2CC2)n1` [Example A38], the IC50 stood at 72 nM.

For the origin of these results see patent US11267811B2, “Small molecule inhibitors of galectin-3” (BRISTOL-MYERS SQUIBB COMPANY, priority 2017, dated 2022).
